Tests used:
[1] = test system: metastatic renal cell carcinoma; test: Treatment response, phase II (WHO criteria); type: in vivo, patients
Experimental: (§1) British Joumal of Cancer (1997) 75(5), 715-721 ? […] Sixteen patients initially received VM26 alone (200 mg m-2 day-' i.v.). […] For this reason, new approaches are highly recommended after a first-line treatment, usually interleukin 2 based (Yagoda et al, 1995). […] P-gp deter- mines reduced intracellular drug accumulation and/or altered intracellular drug compartmentation, preventing drugs from reaching the intracellular target site (Skovsgaard, 1978, Schuurhuis et al, 1989). […] Received 2 June 1996 Revised 2 October 1996 Accepted 17 October 1996 Correspondence to: M Boiocchi, Division of Experimental Oncology 1, Centro di Riferimento Oncologico, via Pedemontana Occidentale 12, 33081 Aviano (PN), Italy Although many chemosensitizers have been used successfully in vitro in MDR cell lines, their potential therapeutic role in the clinical setting remains an intriguing issue. […] This could determine alteration in the pharmacokinetics and pharmacodynamics of the cytotoxic agents (Lum et al, 1992; Wilson et al, 1995). […] The study was approved by the local ethics committee and informed consent was obtained from all patients. Treatment protocol The patients received the first course of VM26 (Vumon; Bristol Myers, Rome, Italy) at the dosage of 200 mg m-2 day-' i.v. every 3 weeks. The second cycle (same dosage) was administered in the event of response or stable disease, if no toxicity was documented. In the event of grade 4 toxicity the dose was reduced by 25%. […] The patients were clinically evaluated according to the usual phase II trials criteria (WHO), and blood tests were performed weekly. […] To determine the VM26 level, 5-ml blood samples were drawn from peripheral vein and collected in heparinized glass tubes before treatment at 0 h (i.e. immediately before the begin- ning of i.v. infusion of VM26) and at 1,6, 12, 18, 24,24.5,25,26, 28, 32, 36, 48 and 60h. Plasma samples, which were separated after centrifugation at 1000 g for 10 min, were kept frozen at - 20'C until analysis. Urine samples were collected before, during and after VM26 treatment. Each 12-h sample from well-stirred urine was stored and kept frozen at -20?C until analysis. […] These samples were frozen at -70?C until analysis. Drug assays The method used to determine VM26 in plasma samples was that described by Evans et al (1982). Briefly, 1 ml of plasma or urine was extracted with 8 ml of chloroform containing VP16 (100 gl of a 200-,ug ml solution) as internal standard. After 20-min shaking at +4?C, samples were centrifuged at 1500 g for 20 min at +4?C. The organic phase was dried under vacuum and then redissolved with 200 gl of methanol; 50 µl of this solution as injected into an LKB-Pharmacia (Cambridge, UK) high-performance liquid chro- matography (HPLC) system equipped with an absorbance detector set at 254 nm. Separation was achieved using an isocratic solvent system of water-acetonitrile-acetic acid (64:35:1) at a flow of 1 ml min-, using a 300 x 3.9-mm long ,uBondapak phenyl column (Waters, New York, NY, USA). Peak areas were quantitated with an LKB integrator. […] To calculate the concentrations of VM26, the internal standard method was adopted. […] Pharmacokinetic analyses To define the plasma concentration-time function and to estimate pharmacokinetic parameters of VM26 for each patient, a compart- mental model was adopted. Drug infusion and non-saturable elim- ination processes were considered zero-order and first-order processes respectively. Estimates of pharmacokinetic parameters [apparent volume of distribution (V); elimination half-life (t1,2p); systemic clearance (CI); maximum drug concentration (Cmax); and area under curve (AUC)] of VM26 and the numerical validation of the model were obtained by PCNONLIN 4.0, a non-linear regression program.

[2] = VM26 plasma pharmacokinetics alone and with CSA (HPLC, compartmental model); type: in vivo, patients
Experimental: as §1

[3] = in vivo
Experimental: as §1

[4] = Total and renal clearance of VM26 (urine collection, seven patients); type: in vivo
Experimental: British Joumal of Cancer (1997) 75(5), 715-721 ? […] Sixteen patients initially received VM26 alone (200 mg m-2 day-' i.v.). […] For this reason, new approaches are highly recommended after a first-line treatment, usually interleukin 2 based (Yagoda et al, 1995). […] P-gp deter- mines reduced intracellular drug accumulation and/or altered intracellular drug compartmentation, preventing drugs from reaching the intracellular target site (Skovsgaard, 1978, Schuurhuis et al, 1989). […] Received 2 June 1996 Revised 2 October 1996 Accepted 17 October 1996 Correspondence to: M Boiocchi, Division of Experimental Oncology 1, Centro di Riferimento Oncologico, via Pedemontana Occidentale 12, 33081 Aviano (PN), Italy Although many chemosensitizers have been used successfully in vitro in MDR cell lines, their potential therapeutic role in the clinical setting remains an intriguing issue. […] The patients were clinically evaluated according to the usual phase II trials criteria (WHO), and blood tests were performed weekly. […] The organic phase was dried under vacuum and then redissolved with 200 gl of methanol; 50 µl of this solution as injected into an LKB-Pharmacia (Cambridge, UK) high-performance liquid chro- matography (HPLC) system equipped with an absorbance detector set at 254 nm. […] Peak areas were quantitated with an LKB integrator. […]

[5] = nine patients after two courses of VM26 alone
[6] = VM26 alone, first cycle, 16 patients

AUC of VM26, median (range) [2, 6]: 290.3 (168.4-791.0) mg l-1 h | Cl of VM26, median (range) [2, 6]: 0.62 (0.25-1.2) l h-1 m-2 | Cmax of VM26, median (range) [2, 6]: 10.9 (7.0-22.3) mg l-1 | V of VM26, median (range) [2, 6]: 5.5 (4.4-9.0) l m-2 | t1/2 of VM26, median (range) [2, 6]: 6.8(2.8-14.8) h | variation in the paired AUC of VM26 ([2]; after CSA versus VM26 alone): 50% | decrease of systemic clearance of VM26 ([2]; when CSA was added, P<0.01): 1.4 fold | ANC/AUC ratio (nadir ANC standardized for AUC of VM26) [3]: 7.38 ± 5.51 | bilirubin (in the normal range) [3]: < 1.5 mg 100 ml-1 | cutaneous eruption, patients [3]: one patient | cycles with significant vomiting, mucositis or constipation [3]: < 15 % of cycles | grade 3 neutropenia, patients [3]: three | hair loss, patients [3]: all patients | nadir neutrophil count (ANC), median [3]: 1900 µL⁻¹ | nadir neutrophil count (ANC), range [3]: 200 to 6000 µL⁻¹ | fraction of total clearance resulting from renal clearance ([4]; VM26 alone): < 6% | Decrease of total Cl of VM26 ([4]; VM26 plus CSA versus VM26 alone, seven patients, P<0.05): 21%
SMILES: COc1cc([C@@H]2c3cc4c(cc3[C@@H](O[C@@H]3O[C@@H]5CO[C@@H](c6cccs6)O[C@H]5[C@H](O)[C@H]3O)[C@H]3COC(=O)[C@H]23)OCO4)cc(OC)c1O [VM26, teniposide]
objective responses ([1]; VM26 alone 200 mg m-2 day-1 i.v., sixteen patients): No objective responses | progressive disease, patients [1, 5]: six | stable disease, patients [1, 5]: three | Response (VM26) ([1]; patient 1, 2 cycles): SD (stable disease) | Response (VM26) ([1]; patient 2, 2 cycles): PD (progressive disease) | Response (VM26) ([1]; patient 3, 2 cycles): PD (progressive disease) | Response (VM26) ([1]; patient 4, 2 cycles): PD (progressive disease) | Response (VM26) ([1]; patient 5, 2 cycles): SD (stable disease) | Response (VM26) ([1]; patient 6, 2 cycles): SD (stable disease) | Response (VM26) ([1]; patient 7, 2 cycles): PD (progressive disease) | Response (VM26) ([1]; patient 8, 2 cycles): PD (progressive disease) | Response (VM26) ([1]; patient 9, 2 cycles): PD (progressive disease)

From article PMC2063346, “Cyclosporin A as a multidrug-resistant modulator in patients with renal cell carcinoma treated with teniposide” (British Journal of Cancer, 1997)
